Marks after values point to notes of the source that are not given here.
Assay: Measurement of logP values by HPLC on reversed phase columns (EEC directive 79/831 Annex V.A8)
Format: physicochemical
Details: pH 2.3

| logP | logP [b] | SMILES |
| --- | --- | --- |
| 2.21^[b] |  | O=C(c1cccc(-c2ccnc(Nc3ccnc(Cl)c3)n2)n1)N1CCC1 [Example A35] |
|  | 2.51[b] | CCCN(CCO)C(=O)c1cc(-c2ncnc(Nc3cccc(Cl)c3)n2)ccn1 [Example B181] |

Same assay, conditions: pH 2.7

| logP | SMILES |
| --- | --- |
| 3.67 | C=C(C)CN(CC)C(=O)c1cc(-c2ncnc(Nc3cccc(Cl)c3)n2)ccn1 [Example B156] |
| 1.59 | CCCN(C)C(=O)c1cc(Nc2nccc(-c3ccnc(C(=O)N(C)CCC)c3)n2)ccn1 [Example A14] |
| 2.09 | NC(=O)c1cc(-c2ncnc(Nc3cccc(F)c3)n2)ccn1 [B324] |
| 2.6 | CCN(CC)C(=O)c1cccc(-c2ccnc(Nc3ccnc(Cl)c3)n2)n1 [Example A33] |
| 3.15 | CC(C)CN(C)C(=O)c1cc(-c2ncnc(Nc3ccc(F)c(C(F)F)c3)n2)ccn1 [Example B395] |
| 1.1 | COCCN(C)C(=O)c1cc(Nc2nccc(-c3ccnc(C(=O)N(C)CCOC)c3)n2)ccn1 [Example A4] |
| 4.16 | Cc1ccc(Nc2ncnc(-c3ccnc(C(=O)NCC4CC4)c3)n2)cc1Cl [B233] |
| 2.9 | CC(C)CN(C)C(=O)c1cc(-c2ncnc(Nc3cc(F)ccc3F)n2)ccn1 [Example B238] |
| 4.7 | CCON=C(C)c1cc(-c2ncnc(Nc3cccc(Cl)c3)n2)ccn1 (mixture of isomers) [B31] |
| 2.28 | CCN(C)C(=O)c1cc(-c2ncnc(Nc3ccc(F)cc3)n2)ccn1 [Example B20] |
| 1.82 | CCN(C)C(=O)c1cc(-c2ncnc(Nc3ccc(OC)nc3)n2)ccn1 [Example C10] |
| 3.89 | CN(C(=O)c1cc(-c2ncnc(Nc3cccc(Cl)c3)n2)ccn1)C1CCCCC1 [Example B144] |
| 3.12 | NC(=S)c1cc(-c2ncnc(Nc3cccc(Cl)c3)n2)ccn1 [Example B119] |
| 2.94 | CCN(C)C(=S)c1cc(-c2ncnc(Nc3cccc(C(F)F)c3)n2)ccn1 [Example B341] |
| 4.22 | CCC(CC)NC(=O)c1cc(-c2ncnc(Nc3cccc(Cl)c3)n2)ccn1 [B63] |
| 3.09 | CCCCN(C)C(=O)c1cc(-c2ncnc(Nc3cccc(F)c3)n2)ccn1 [Example B376] |
| 3.73 | O=C(NCCC(F)(F)F)c1cc(-c2ncnc(Nc3cccc(Cl)c3)n2)ccn1 [B121] |
| 4.49 | CCC(C)NC(=O)c1cc(-c2ncnc(Nc3ccc(C)c(Cl)c3)n2)ccn1 (centres unmarked) [B232] |
| 3.8 | CCC1CCCCN1C(=O)c1cc(-c2ncnc(Nc3cccc(Cl)c3)n2)ccn1 (centres unmarked) [Example B139] |
| 3.51 | CN(C(=O)c1cc(-c2ncnc(Nc3cccc(Cl)c3)n2)ccn1)C1CCCC1 [Example B149] |
| 2.13 | CN(C)C(=O)c1cc(-c2ncnc(Nc3cccc(F)c3)n2)ccn1 [Example B5] |
| 4.34 | CCCCCCN(C)C(=O)c1cc(-c2ncnc(Nc3cccc(Cl)c3)n2)ccn1 [Example B128] |
| 2.02 | CN(C)C(=O)c1cc(-c2ncnc(Nc3ccc(F)cc3)n2)ccn1 [Example B18] |
| 5.63 | CC(=NOCC(C)C)c1cc(-c2ncnc(Nc3cccc(Cl)c3)n2)ccn1 (mixture of isomers) [B44] |

| logP | SMILES |
| --- | --- |
| 3.33 | Cc1ccc(Nc2ncnc(-c3ccnc(C(=O)N(C)C(C)C)c3)n2)cc1Cl [Example B365] |
| 2.8 | Cc1ccc(Nc2ncnc(-c3ccnc(C(=O)N(C)CCC#N)c3)n2)cc1Cl [Example B366] |
| 2.96 | CC(C)N(C)C(=O)c1cc(-c2ncnc(Nc3cccc(Cl)c3)n2)ccn1 [Example B158] |
| 2.68 | CN(CCC#N)C(=O)c1cc(-c2ncnc(Nc3cccc(C(F)(F)F)c3)n2)ccn1 [Example B363] |
| 3.02 | CCN(C)C(=O)c1cc(-c2ncnc(Nc3ccc(C)c(Cl)c3)n2)ccn1 [Example B236] |
| 1.57 | COc1ccc(Nc2ncnc(-c3ccnc(C(=O)N(C)C)c3)n2)cn1 [Example C8] |
| 5.65 | CCC(=NOCc1ccccc1)c1cc(-c2ncnc(Nc3cccc(Cl)c3)n2)ccn1 (mixture of isomers) [B72] |
| 2.13 | C=CCN(C)C(=O)c1cc(-c2ccnc(Nc3ccnc(Cl)c3)n2)ccn1 [Example A25] |
| 4.75 | CCCCN(CCCC)C(=O)c1cc(-c2ncnc(Nc3cccc(Cl)c3)n2)ccn1 [B175] |
| 3.32 | CCCN(C)C(=S)c1cc(-c2ncnc(Nc3cccc(F)c3)n2)ccn1 [Example B13] |
| 3.06 | CCN(C)C(=O)c1cc(-c2ncnc(Nc3cccc(S(F)(F)(F)(F)F)c3)n2)ccn1 [Example B252] |
| 4.12 | CC(C)CC(=O)O/N=C(/N)c1cc(-c2ncnc(Nc3cccc(Cl)c3)n2)ccn1 [Example B110] |
| 3.09 | O=C(NCC1CCCO1)c1cc(-c2ncnc(Nc3cccc(Cl)c3)n2)ccn1 (centres unmarked) [Example B33] |
| 4.54 | CCCC(C)NC(=O)c1cc(-c2ncnc(Nc3cccc(Cl)c3)n2)ccn1 (centres unmarked) [Example B118] |
| 3.89 | CCCCCN(C)C(=O)c1cc(-c2ncnc(Nc3cccc(Cl)c3)n2)ccn1 [Example B161] |
| 2.64 | CCN(OC)C(=O)c1cc(-c2ncnc(Nc3cccc(C(F)F)c3)n2)ccn1 [B413] |
| 1.87 | CCCN(C)C(=O)c1cc(-c2ncnc(Nc3cccc(NC(C)=O)c3)n2)ccn1 [Example B305] |
| 3.55 | CCNC(=O)c1cc(-c2ncnc(Nc3ccc(C)c(Cl)c3)n2)ccn1 [B231] |
| 2.78 | CCN(C)C(=S)c1cc(-c2ncnc(Nc3cccc(OC)c3)n2)ccn1 [Example B281] |
| 2.07 | CN(CCC#N)C(=O)c1cc(-c2ncnc(Nc3ccccc3)n2)ccn1 [Example B310] |
| 2.73 | CN(C)C(=S)c1cc(-c2ncnc(Nc3ccc(F)c(C(F)F)c3)n2)ccn1 [Example B332] |
| 1.78 | CN(CCC#N)C(=O)c1cc(-c2ccnc(Nc3ccnc(Cl)c3)n2)ccn1 [Example A24] |
| 2.26 | CCON(C)C(=O)c1cc(-c2ncnc(Nc3ccsc3)n2)ccn1 [Example C33] |
| 2.04 | CN(CCO)C(=O)c1cc(-c2ncnc(Nc3cccc(Cl)c3)n2)ccn1 [Example B136] |

| logP | SMILES |
| --- | --- |
| 3.15 | CC(C)N(C)C(=O)c1cc(-c2ncnc(Nc3ccc(Cl)c(C(F)F)c3)n2)ccn1 [Example B391] |
| 2.86 | COC(=O)NN=C(C)c1cc(-c2ncnc(Nc3cccc(Cl)c3)n2)ccn1 [B83] |
| 1.91 | COCc1cccc(Nc2ncnc(-c3ccnc(C(=O)N(C)C)c3)n2)c1 [Example B243] |
| 2.25 | CN(CCC#N)C(=O)c1cc(-c2ncnc(Nc3cccc(C(F)F)c3)n2)ccn1 [Example B284] |
| 4.91 | CC#CCON=C(CC)c1cc(-c2ncnc(Nc3cccc(Cl)c3)n2)ccn1 (mixture of isomers) [B53] |
| 3.25 | CCCN(C)C(=O)c1cc(-c2ncnc(Nc3cccc(C(F)(F)F)c3)n2)ccn1 [Example B356] |
| 1.94 | COCc1cccc(Nc2ncnc(-c3ccnc(C(=O)N(C)CCC#N)c3)n2)c1 [Example B239] |
| 1.99 | CC(=NOCCN(C)C)c1cc(-c2ncnc(Nc3cccc(Cl)c3)n2)ccn1 (mixture of isomers) [B32] |
| 3.78 | Cc1ccc(Nc2ncnc(-c3ccnc(C(=O)N(C)CC(C)C)c3)n2)cc1Cl [Example B368] |
| 2.82 | CN(CCC#N)C(=S)c1cc(-c2ncnc(Nc3ccc(F)c(C(F)F)c3)n2)ccn1 [Example B340] |
| 3.12 | COCc1cccc(Nc2ncnc(-c3ccnc(C(=S)N(C)CC4CC4)c3)n2)c1 [Example B249] |
| 5.18 | CC(=NOCc1ccccc1)c1cc(-c2ncnc(Nc3cccc(Cl)c3)n2)ccn1 (mixture of isomers) [B50] |
| 2.88 | CCN(C)C(=O)c1cc(-c2ncnc(Nc3ccc(Cl)c(C(F)F)c3)n2)ccn1 [Example B386] |
| 4.39 | CCOC1CCC(NC(=O)c2cc(-c3ncnc(Nc4cccc(Cl)c4)n3)ccn2)CC1 (centres unmarked) [Example B97] |
| 2.55 | CCCN(C)C(=O)c1cc(-c2ncnc(Nc3ccccc3)n2)ccn1 [Example B312] |
| 3.29 | CCN(CC)C(=O)c1cc(-c2ncnc(Nc3cccc(OC(F)(F)C(F)F)c3)n2)ccn1 [Example B348] |
| 3.17 | CCCNC(=O)c1cc(-c2ncnc(Nc3cccc(F)c3)n2)ccn1 [B323] |
| 2.2 | CCCN(C)C(=O)c1cc(-c2ccnc(Nc3ccnc(Cl)c3)n2)ccn1 [Example A13] |
| 2.42 | COCc1cccc(Nc2ncnc(-c3ccnc(C(=O)N(C)C(C)C)c3)n2)c1 [Example B246] |
| 3.39 | CCN(CC)C(=O)c1cc(-c2ncnc(Nc3cccc(OC(F)(F)F)c3)n2)ccn1 [Example B263] |
| 3.08 | C=CCNC(=O)c1cc(-c2ncnc(Nc3cccc(F)c3)n2)ccn1 [B325] |
| 2.98 | CN(CC1CC1)C(=O)c1cc(-c2ncnc(Nc3cccc(OC(F)F)c3)n2)ccn1 [B410] |
| 3.65 | CCCN(C)C(=S)c1cc(-c2ncnc(Nc3cccc(Cl)c3)n2)ccn1 [Example B336] |
| 2.37 | CC(C)N(C)C(=O)c1cc(-c2ncnc(Nc3cccc(C#N)c3)n2)ccn1 [Example B296] |

| SMILES | logP |
| --- | --- |
| Cc1ccc(Nc2ncnc(-c3ccnc(C(=O)N(C)CC4CC4)c3)n2)cc1Cl [Example B367] | 3.53 |
| CN(CC1CC1)C(=O)c1cc(-c2ncnc(Nc3ccccc3)n2)ccn1 [Example B313] | 2.65 |
| COC[C@H]1CCCN1C(=O)c1cc(-c2ncnc(Nc3cccc(Cl)c3)n2)ccn1 [Example B134] | 3.08 |
| CCN(CC)C(=O)c1cc(-c2ncnc(Nc3cccc(F)c3)n2)ccn1 [Example B2] | 2.72 |
| CN(CC(F)F)C(=O)c1cc(-c2ncnc(Nc3cccc(Cl)c3)n2)ccn1 [Example B373] | 3.06 |
| Clc1cccc(Nc2ncnc(-c3ccnc(C4=NOCCO4)c3)n2)c1 [Example B187] | 2.63 |
| CCN(CC)C(=O)c1cc(-c2ncnc(Nc3cccc(COC)c3)n2)ccn1 [Example B240] | 2.48 |
| CC(C)CN(C)C(=O)c1cc(-c2ncnc(Nc3ccsc3)n2)ccn1 [Example C16] | 2.63 |

Same assay, conditions: pH 7.8

| chromatographic logP | SMILES |
| --- | --- |
| 2.14 | COc1ccc(Nc2ncnc(-c3ccnc(C(=O)N4CCCCC4)c3)n2)cn1 [Example C2, (4-{4-[(6-methoxypyridin-3-yl)amino]-1,3,5-triazin-2-yl}pyridin-2-yl)(piperidin-1-yl)methanone] |

Source: patent US20110218188A1, “SUBSTITUTED (PYRIDYL)-AZINYLAMINE DERIVATIVES AS FUNGICIDES” (priority 2008, published 2011)
